In ChEMBL document CHEMBL1130981, “DNA gyrase inhibitory activity of ellagic acid derivatives” (Bioorg Med Chem Lett, 1998):

Target: DNA gyrase (Escherichia coli, UniProt P0AES4+P0AES6)
Assay: Inhibition of DNA gyrase supercoiling in Escherichia coli.
Format: protein-complex assay

Question: Which IC50 does the source give for O=c1oc2c(Cl)c(Cl)ccc2c2cc(O)c(O)cc12 here?
Answer: 942 µM

Question: With O=C1c2cc(O)c(O)cc2-c2cc(O)c(O)cc21 as the molecule, how does the IC50 read?
Answer: 53.2 µM

Question: O=c1oc2c(F)c(F)ccc2c2cc(O)c(O)cc12 was tested. Which IC50 did it give?
Answer: 151 µM

Question: With O=c1oc2c(O)c(O)ccc2c2ccc(O)cc12 as the molecule, how does the IC50 read?
Answer: 328 µM

Question: ONC1c2cc(O)c(O)cc2-c2cc(O)c(O)cc21 was tested. Which IC50 did it give?
Answer: 7.66 µM

Question: O=c1oc2c(O)c(O)cc3c(=O)oc4c(O)c(O)cc1c4c23 [ELLAGIC ACID] was tested. Which IC50 did it give?
Answer: 156 µM

Question: O=c1oc2ccccc2c2cc(O)c(O)cc12 was tested. Which IC50 did it give?
Answer: > 2190 µM

Question: Which IC50 does the source give for Cc1cc(O)c(O)c2oc(=O)c3ccc(F)cc3c12 here?
Answer: > 1920 µM

Question: How did the IC50 turn out when O=c1oc2cc(O)c(O)cc2c2cc(O)c(O)cc12 was run?
Answer: 307 µM

Question: For O=c1oc2ccccc2c2ccccc12, which IC50 is on record?
Answer: > 2550 µM

Question: Which IC50 does the source give for O=c1oc2c(O)c(O)ccc2c2cc(O)c(O)cc12 here?
Answer: 500 µM

Question: With O=c1oc2c(O)c(O)ccc2c2cc(F)ccc12 as the molecule, how does the IC50 read?
Answer: 447 µM

Question: With O=c1oc2cc(O)c(O)cc2c2cc(F)ccc12 as the molecule, how does the IC50 read?
Answer: 1500 µM

Question: For Cc1cc(O)c(O)c2oc(=O)c3cc(O)c(O)cc3c12, which IC50 is on record?
Answer: 511 µM

Question: Which IC50 does the source give for O=c1oc2c(O)c(O)ccc2c2ccccc12 here?
Answer: > 2190 µM
